In one experiment the test system is OVCAR3-CP cells. Kind of experiment: 10-day colony formation assay, OVCAR3-CP (cisplatin resistant). Format: cell-based, human. The note with it: for fold change: cisplatin-resistant OVCAR3 relative to OVCAR3 cisplatin-naïve, colony formation. As to the method:
Cells were seeded at predetermined densities, 24 hours later treated with drug, which was replenished every 3-4 days. After 10 days, cells were washed with PBS, fixed in methanol, stained with crystal violet and colonies counted. The surviving fraction (SF) for a given dose was calculated and dose-response curves plotted and IC50 generated using Graph Pad Prism™ 5. Receiver operator curves (ROC) were plotted by dicotomising the IC50 values based on the median of the IC50 and defining the higher IC50 values as resistant and the lower IC50 values as sensitive. The gene signatures associated with the cell lines were plotted based on sensitive and resistant cells. Additionally ROCs were plotted by dicotomising the signature scores based on the median of the scores and defining the higher signature score as signature positive and the lower signature scores as signature negative. The IC50s associated with the cell lines were plotted based on signature positive and signature negative cells. OVCAR3 and OVCAR4 cells were trypsinised and relevant cell numbers were seeded into P90 plates. Cells were allowed to adhere overnight. The following day media was removed and replaced with media containing 25 nM cisplatin. The concentration of cisplatin was increased every 2 weeks, doubling the concentration at every increment. Batches of cells were frozen every two weeks upon increasing the concentration of cisplatin. Once cells were stably growing at 200 nM cisplatin, sensitivity to cisplatin was tested by clonogenic assay. Cells were continuously grown in 200 nM cisplatin.

In another experiment the test system is OVCAR3-WT cells. Kind of experiment: 10-day colony formation assay, OVCAR3-WT (cisplatin sensitive/naive). Format: cell-based, human. As to the method: (§1) Cells were seeded at predetermined densities, 24 hours later treated with drug, which was replenished every 3-4 days. After 10 days, cells were washed with PBS, fixed in methanol, stained with crystal violet and colonies counted. The surviving fraction (SF) for a given dose was calculated and dose-response curves plotted and IC50 generated using Graph Pad Prism™ 5. Receiver operator curves (ROC) were plotted by dicotomising the IC50 values based on the median of the IC50 and defining the higher IC50 values as resistant and the lower IC50 values as sensitive. The gene signatures associated with the cell lines were plotted based on sensitive and resistant cells. Additionally ROCs were plotted by dicotomising the signature scores based on the median of the scores and defining the higher signature score as signature positive and the lower signature scores as signature negative. The IC50s associated with the cell lines were plotted based on signature positive and signature negative cells.

The subject of another experiment is Kuramochi cells. Kind of experiment: Western blot of EMT and MAPK pathway markers, Kuramochi cells. The format is cell-based. The note with it: western blot (FIG. 30a). In general terms: A western blot detects proteins with antibodies after separation by electrophoresis.
Experiment [1] relates to OVCAR3-WT, OVCAR3-CP, OVCAR4-WT and OVCAR4-CP cells. Kind of experiment: 10-day colony formation assay with ALM201 (FIG. 30c). The format is cell-based, human. The following applies: OVCAR3 and OVCAR4 cells (FIG. 30c). As to the method: as §1
OVCAR3 and OVCAR4 cells were trypsinised and relevant cell numbers were seeded into P90 plates. Cells were allowed to adhere overnight. The following day media was removed and replaced with media containing 25 nM cisplatin. The concentration of cisplatin was increased every 2 weeks, doubling the concentration at every increment. […]

The subject of experiment [2] is OVCAR3 platinum resistant cell line. Kind of experiment: xCELLigence invasion assay. The note with it: 0.1 nM, 1 nM and 10 nM (p=0.0211, p=0.0026, p=0.3373) (FIG. 30d). The format is cell-based, human. As to the method:
The invasion assay was performed using the xCELLigence RTCA DP system and carried out with CIM-plate 16 (ACEA bioscience).
Normal cell media growth conditions (RPMI 1640, 1% L-Glut and 20% FCS) was the chemoattractant condition used in the bottom chamber. 160 μl of the chemoattractant was added to each bottom chamber of a CIM-plate 16. The CIM-Plate 16 is assembled by placing the top chamber onto the bottom chamber and snapping the two together. 20 μl Matrigel growth factor reduced (GFR) (phenol-red free) basement membrane matrix (Cornig, ref: 356231) was diluted in 400 μl optimem (serum free) giving a final working concentration of GFR Matrigel of 5%. […]
The protocol is optimized for the two paired cancer cell lines: OVCAR3, OVCAR4 parental and OVCAR3, OVCAR4 platinum resistant cell lines. […] Once the CIM-Plate 16 has been equilibrated, it is placed in the RTCA DP station and the background cell-index values are measured. […] The CIM-Plate 16 is placed in the RTCA DP station and migration is monitored every 5 minutes for several hours.
Each experimental condition was performed in triplicate. For quantification of the migration rate, the slope of the curve was used to determine the rate if change in cell index. The average and standard deviation slope values were then quantified relative to that at the control condition.

Experiment [3] shares this test system. Kind of experiment: xCELLigence migration assay. The following applies: 0.1 nM, 1 nM and 10 nM (p=0.08544, p=0.015522, p=0.036739) (FIG. 30d). The format is cell-based, human. As to the method:
The migration assay was performed using the xCELLigence RTCA DP system and carried out with CIM-plate 16 (ACEA Bioscience). Endothelial progenitor cell conditioned media, fresh endothelial media with growth factors (VEGF, IGF-1, bFGF, EGF) with 10% foetal bovine serum (FBS) and endothelial media with 10% foetal bovine serum (FBS) only, were the three chemo-attractant conditions used in the bottom chamber. 160 μl of the chemo-attractant was added to each bottom chamber of a CIM-plate 16. The CIM-Plate 16 is assembled by placing the top chamber onto the bottom chamber and snapping the two together. 30 μl pf serum-free medium is placed in the top chamber to hydrate and pre-incubate the membrane for 2 hours in the CO2 incubator at 37° C. before obtaining a background measurement. The protocol is optimised for the two paired cancer cell lines: OVCAR3, OVCAR4 parental and OVCAR3, OVCAR4 platinum resistant cell lines. […] Once the CIM-Plate 16 has been equilibrated, it is placed in the RTCA DP station and the background cell-index values are measured. […] The CIM-Plate 16 is placed in the RTCA DP station and migration is monitored every 5 minutes for several hours. […] For quantification of the migration rate, the slope of the curve was used to determine the rate if change in cell index. The average and standard deviation slope values were then quantified relative to the controls.

In experiment [4] the test system is OVCAR3 cisplatin resistant cell line. Kind of experiment: Western blot of EMT and MAPK pathway markers, OVCAR3 cisplatin resistant cells. Format: cell-based, human. The following applies: 1 nM and 10 nM, 24 hour treatment; western blot (FIG. 30b).
Experiment [5] concerns OVCAR3 and OVCAR4 cisplatin-resistant cells. Kind of experiment: Western blot of VEGFa protein expression. Format: cell-based, human. The following applies: IC50 concentration; western blot (FIG. 43B).
For experiment [6] the test system is unchanged. Kind of experiment: CellTiter Glo cell viability assay. The format is cell-based. The note with it: Homo sapiens; 48 hour time point; cell line not stated in legend (FIG. 43A). As to the method:
Cells were trysanised and counted using the Countess™ Automated Cell Counter. 5,000 cells were seeded into each well of a 96 well plate. Cells were allowed to adhere overnight and were then treated with titrated concentrations of cisplatin, cedirianib and nintedanib (10 μM to 0.005 μM concentration). […] The 96 well plate was allowed to stand at room temperature for 20-30 mins. In the meantime the CellTiter-Glo Luminescent was allowed to thaw from the −20 freezer. Following the 20-30 minute incubation, 75 μl of the CellTiter-Glo Luminescent was added per well, this was then shaken for 2 minutes and then allowed to stand for 10 minutes. The analysis was performed using the Bioscience BioTek plate reader.

In experiment [7] the test system is relapsed platinum sensitive epithelial ovarian cancer. The following applies: cited from earlier work.
Setting [8] is: Homo sapiens, OVCAR-3, 240 h, OVCAR3 cisplatin-resistant, 10-day colony formation (FIG. 42).
[9] abbreviates: Homo sapiens, OVCAR-3, 240 h, OVCAR3 cisplatin-naïve, 10-day colony formation (FIG. 42).

Some results are limits rather than exact numbers.

Data on four compounds can be found in patent US20190127805A1, “GENE SIGNATURES FOR CANCER DETECTION AND TREATMENT” (ALMAC DIAGNOSTICS LIMITED, priority 2016, published 2019).

One may read the IC50 as the concentration that gives 50% inhibition. Lower therefore signals higher potency.

`N.N.[Cl][Pt][Cl]` [cisplatin]: the IC50 in the experiment on OVCAR3-CP cells (OVCAR3-CP, cisplatin with addition of Trametinib) amounted to 60 nM; in the experiment with OVCAR3-CP cells (cisplatin resistant OVCAR3 cells, colony formation (FIG. 2a)) it was 290 nM; in the experiment with OVCAR3-WT cells (OVCAR3-WT, cisplatin alone) it was 66 nM; in the experiment with OVCAR3-WT cells (OVCAR3-WT, cisplatin with addition of 0.5 uM Trametinib), 33 nM; with OVCAR3-WT cells (cisplatin sensitive OVCAR3 cells, colony formation (FIG. 2a)), 66 nM. For the same compound, the “fold decrease in the IC50” value in the experiment on OVCAR3-CP cells (OVCAR3-CP, following addition of Trametinib to cisplatin) is listed as 4.8 fold; in the experiment on OVCAR3-WT cells (OVCAR3-WT, following addition of Trametinib to cisplatin) it was 2 fold. The “fold difference in IC50 doses” value in the experiment with OVCAR3-CP cells (cisplatin resistant vs cisplatin sensitive OVCAR3 cells) was found to be 4.4 fold.
As to “IRQQPRDPPTETLELEVSPDPAS (listed as Homo sapiens) [ALM201]”, in the experiment on Kuramochi cells, the EMT signalling entry is on record as “reduced” and the MAPK signalling entry is listed as “reduced”. Moreover, the proliferation capacity result in [1] was “inhibited the proliferation capacity”. Also, the invasion potential result in experiment [2] was “inhibited”. Further, the migration potential result in [3] was “inhibited”. Also, in experiment [4], the EMT markers entry is “reversing EMT markers” and the MAPK pathway result is reported as “downregulation of the MAPK pathway”.
For the compound `COC(=O)c1ccc2c(c1)NC(=O)/C2=C(\Nc1ccc(N(C)C(=O)CN2CCN(C)CC2)cc1)c1ccccc1` [Nintedanib], the “expression of the VEGFR ligand, VEGFa” value in experiment [5] is reported as “downregulated”. Besides, the IC50 with OVCAR3-CP cells (setting [8]) is 3780 nM; in [6], 9100 nM; with OVCAR3-WT cells (setting [9]), over 10000 nM. For the same compound, the fold change in the experiment with OVCAR3-CP cells is given as 0.377.
`COc1cc2c(Oc3ccc4[nH]c(C)cc4c3F)ncnc2cc1OCCCN1CCCC1` [Cediranib]: the “expression of the VEGFR ligand, VEGFa” value in experiment [5] was “downregulated”. Moreover, the IC50 with OVCAR3-CP cells (setting [8]) is 1190 nM; in experiment [6], 5570 nM; in the experiment on OVCAR3-WT cells (setting [9]), 4990 nM. Besides, the fold change with OVCAR3-CP cells was found to be 0.2391. For the same compound, the PFS in [7] (cediranib with platinum chemotherapy and maintenance (reference 9.4 months)) is reported as 11.4 months. Moreover, the overall survival in experiment [7] (cediranib with platinum chemotherapy and maintenance (reference 17.6 months)) is 20.3 months. Moreover, the “HR for PFS” value in experiment [7] (p-value=0.0022) is 0.68. Moreover, in experiment [7] (p-value=0.0419), the “HR for overall survival” value is 0.70.
